Results from paper PMC12227328, “The Enzyme Glucose‐1‐Phosphate Thymidylyltransferase RmlA Plays a Crucial Role in the Pathogenesis of Pectobacterium actinidiae GX1” (Molecular Plant Pathology, 2025).

Experiments:
[1] = target: T1, RmlA (glucose-1-phosphate thymidylyltransferase, gene 1774) (Pectobacterium actinidiae, UniProt A0ABW8GFN0); test: microscale thermophoresis, FITC-labelled RmlA; settings: read-out: binding affinity; 50 mM Tris-HCl, 1 mM MgCl2, 0.05% Tween 20, pH 8.0; ligand as disodium salt
T1 construct: gene rfbA; intact rmlA cloned from GX1 genomic DNA into pET32a; fusion protein; E. coli ArcticExpress (DE3); FITC-labelled

[2] = target: T2, RmlA (glucose-1-phosphate thymidylyltransferase, gene 1774) (Pectobacterium actinidiae, UniProt A0ABW8GFN0, G107A/D108A/N109A/G144A/E159A/V170A/E196A); settings: read-out: binding affinity; 50 mM Tris-HCl, 1 mM MgCl2, 0.05% Tween 20, pH 8.0; ligand as disodium salt
T2 construct: gene rfbA

SMILES	Kd [1] [µM]	Kd [2] [µM]
O=P(O)(O)O[C@H]1O[C@H](CO)[C@@H](O)[C@H](O)[C@H]1O [G-1-P]	73.3	8960
Cc1cn([C@H]2C[C@H](O)[C@@H](COP(=O)(O)OP(=O)(O)OP(=O)(O)O)O2)c(=O)[nH]c1=O [dTTP]	199	2710
